# Assays:
# [1] = tested on: tumor cell line K562 (Ph-positive); assay: Growth behavior of K562 cells following administration of PNA conjugates (cell number, Coulter Counter); format: cell-based
# tumor cell line K562 = assay: Apoptosis behavior of K562 cells: cell number after 24 h treatment and subsequent PNA removal; format: cell-based; settings: 100 nM for 24 h
# Protocol: The cell number change is shown on a time axis. The treatment was carried out for 24 h and by means of subsequent PNA removal. Final concentration: 100 nM. Dark blue line: AS conjugate; magenta: random sequence conjugate; yellow: AS-non-ligated; blue: untreated control.
# The question of the apoptosis behavior following the administration of a conjugate according to the invention (corresponding to Example 3 and FIG. 6) was studied as such. The incubation period was 24 hours with 5% CO2 at 37° C. in an incubator. Having removed the medium mixture and carrying out a wash step twice using fresh RPMI-1640, the same volume of fresh medium was added by pipetting and further cultured. The medium was changed every 72 hours. The cultures were treated as before: As in the previous experiment, a break-down of the untreated culture was again found after about 72 hours. […] The relative stability up to 144 hours following the removal of antisense NLS-PNA was striking in the culture treated with antisense NLS-PNA.
substance,measurement,setting,value
Transport peptide (penetratin)-disulfide bridge-NLS—KK(FITC)—PNA^BCR/Abl (sequence of PNA^BCR/Abl: H2N-TGCGTGTGGATGATTCTTTGTTTTAA-COOH) [antisense NLS penetratin],phenotype of the treated cells,"[1]; 100 nM, in contrast to the controls",vital phenotype
same,"stabilization of the cell number, time after the treatment","[1]; final concentration 100 nM, treatment throughout the experiment",24 h
same,growth behavior (cell number change on a time axis),"[1]; final concentration 100 nM, treatment throughout the experiment, compared with untreated control",stagnation of the cell proliferation
same,"relative stability of the culture, time following PNA removal",tumor cell line K562; then PNA removal,up to 144 hours
same,time of the maximum cell number following PNA removal,tumor cell line K562; then PNA removal,120 h
same,cell growth / cell number after PNA removal,"tumor cell line K562; then PNA removal and further culture, medium changed every 72 hours",minor increase in the cell number

# Source: patent US20050250110A1, “PNA conjugate for treating chronic myeloid leukemia (CML)” (priority 2001, published 2005)
